Measured values taken from patent publication US12258344B2, “Azaaromatic amide derivatives for the treatment of cancer” (SHENZHEN FORWARD PHARMACEUTICALS CO., LTD., priority 2019, dated 2025).

Legend:
Format in all cases: cell-based
BaF3 (EGFR/D770insSVD) [1] = target: T1, BaF3 (EGFR/D770insSVD) (Homo sapiens, UniProt P00533, cells depend on it, form not given); test: Test 13: EGFR exon 20 inserted D770insSVD cell proliferation test; settings: A763insFQEA, V769insASV, D770insSVD (tests 13-15), in words
T1 construct: other: A763insFQEA, V769ins
Procedure: (§1) Test 13: EGFR Exon 20 Inserted D770insSVD Cell Proliferation Test
(§2) The number of viable cells in the culture was measured according to the protocol described in Promega's Cell Titer-Glo Luminescent cell Viability Assay (Promega catalog number #G7570). 90 μl of cells (3,000 cells/well) were cultured in growth medium in a Corning black transparent bottom 96-well plate, and cultured in a 5% CO2 humidified incubator at 37° C. overnight. The compound serially diluted in 100% DMSO was added to the cells using a pipette, and the cells were incubated for another 72 hours. 100 μl of the mixed Cell Titer-Glo reagent was added to the cells in the 96-well culture plate to lyse the cells and mix gently. Subsequently, the […] was detected on the Envision microplate detector to obtain the data of each compound. Finally, the data was input into a suitable software package (such as Prism) for curve fitting analysis.

BaF3 (EGFR/D770insSVD) [2] = target: T2, BaF3 (EGFR/D770insSVD) (Homo sapiens, UniProt P00533, DUP768-770, cells depend on it); test: as above; settings: BaF3 (EGFR/D770insSVD), 72 hours, Cell Titer-Glo; read-out: Test 13 IC50
T2 construct: Test 13 IC50 (nM); other: BaF3 (EGFR/D770insSVD), 72 hours, Cell Titer-Glo
Procedure: as §1, §2

BaF3 (EGFR/A763insFQEA) = BaF3 (EGFR/A763insFQEA) (Homo sapiens, UniProt P00533, INS763FQEA, cells depend on it); test: Test 14: EGFR exon 20 inserted A763insFQEA cell proliferation test; settings: 72 hours, Cell Titer-Glo, read-out: Test 14 IC50
Procedure: Test 14: EGFR Exon 20 Inserted A763insFQEA Cell Proliferation Test
as §2

BaF3 (EGFR/V769insASV) = BaF3 (EGFR/V769insASV) (Homo sapiens, UniProt P00533, DUP767-769, cells depend on it); test: Test 15: EGFR exon 20 inserted V769insASV cell proliferation test; settings: 72 hours, Cell Titer-Glo, read-out: Test 15 IC50
Procedure: Test 15: EGFR Exon 20 Inserted V769insASV Cell Proliferation Test
as §2, with “(3000” for “(3,000”

[3] = tested on: NCI-H1975 (EGFR L858R/T790M double mutant); test: Test 1: EGFR L858R/T790M (EGFR double mutant) cell proliferation test; settings: Homo sapiens; NCI-H1975 cells, 72 hours, Cell Titer-Glo
Procedure: Test 1: EGFR L858R/T790M (EGFR Double Mutant) Cell Proliferation Test
The human lung cell line NCI-H1975 (EGFR L858R/T790M double mutant) was obtained from the American Type Culture Collection. NCI-H1975 cells were cultured in RPMI1640 medium containing 10% fetal bovine serum and 2 mM glutamine. The cells were grown at 37° C. in a humidified incubator with 5% CO2.
as §2, with “(8,000” for “(3,000”

BaF3 (EGFR-D770insSVD) = BaF3 (EGFR-D770insSVD) (Homo sapiens, UniProt P00533, DUP768-770, cells depend on it); test: Test 2: BaF3 (EGFR-D770insSVD) cell proliferation test; settings: 72 hours, Cell Titer-Glo, read-out: Test 2 - IC50
Procedure: Test 2: BaF3 (EGFR-D770insSVD) Cell Proliferation Test
BaF3 (EGFR-D770insSVD) was cultured in RPMI1640 medium containing 10% fetal bovine serum and 2 mM glutamine. The cells were grown at 37° C. in a humidified incubator with 5% CO2.
as §2

BaF3 (EGFR-A763insFQEA) = BaF3 (EGFR-A763insFQEA) (Homo sapiens, UniProt P00533, INS763FQEA, cells depend on it); test: Test 3: BaF3 (EGFR-A763insFQEA) cell proliferation test; settings: 72 hours, Cell Titer-Glo, read-out: Test 3 - IC50
Procedure: Test 3: BaF3 (EGFR-A763insFOEA) Cell Proliferation Test
BaF3 (EGFR-A763insFQEA) was cultured in RPMI1640 medium containing 10% fetal bovine serum and 2 mM glutamine. The cells were grown at 37° C. in a humidified incubator with 5% CO2.
as §2

BaF3 (EGFR-V769insASV) = BaF3 (EGFR-V769insASV) (Homo sapiens, UniProt P00533, DUP767-769, cells depend on it); test: Test 4: BaF3 (EGFR-V769insASV) cell proliferation test; settings: 72 hours, Cell Titer-Glo, read-out: Test 4 - IC50
Procedure: Test 4: BaF3 (EGFR-V769insASV) Cell Proliferation Test
BaF3 (EGFR-V769insASV) was cultured in RPMI1640 medium containing 10% fetal bovine serum and 2 mM glutamine. The cells were grown at 37° C. in a humidified incubator with 5% CO2.
as §2

Sequence of BaF3 (EGFR-D770insSVD) (P00533 with tags, fused parts or gaps DUP768-770): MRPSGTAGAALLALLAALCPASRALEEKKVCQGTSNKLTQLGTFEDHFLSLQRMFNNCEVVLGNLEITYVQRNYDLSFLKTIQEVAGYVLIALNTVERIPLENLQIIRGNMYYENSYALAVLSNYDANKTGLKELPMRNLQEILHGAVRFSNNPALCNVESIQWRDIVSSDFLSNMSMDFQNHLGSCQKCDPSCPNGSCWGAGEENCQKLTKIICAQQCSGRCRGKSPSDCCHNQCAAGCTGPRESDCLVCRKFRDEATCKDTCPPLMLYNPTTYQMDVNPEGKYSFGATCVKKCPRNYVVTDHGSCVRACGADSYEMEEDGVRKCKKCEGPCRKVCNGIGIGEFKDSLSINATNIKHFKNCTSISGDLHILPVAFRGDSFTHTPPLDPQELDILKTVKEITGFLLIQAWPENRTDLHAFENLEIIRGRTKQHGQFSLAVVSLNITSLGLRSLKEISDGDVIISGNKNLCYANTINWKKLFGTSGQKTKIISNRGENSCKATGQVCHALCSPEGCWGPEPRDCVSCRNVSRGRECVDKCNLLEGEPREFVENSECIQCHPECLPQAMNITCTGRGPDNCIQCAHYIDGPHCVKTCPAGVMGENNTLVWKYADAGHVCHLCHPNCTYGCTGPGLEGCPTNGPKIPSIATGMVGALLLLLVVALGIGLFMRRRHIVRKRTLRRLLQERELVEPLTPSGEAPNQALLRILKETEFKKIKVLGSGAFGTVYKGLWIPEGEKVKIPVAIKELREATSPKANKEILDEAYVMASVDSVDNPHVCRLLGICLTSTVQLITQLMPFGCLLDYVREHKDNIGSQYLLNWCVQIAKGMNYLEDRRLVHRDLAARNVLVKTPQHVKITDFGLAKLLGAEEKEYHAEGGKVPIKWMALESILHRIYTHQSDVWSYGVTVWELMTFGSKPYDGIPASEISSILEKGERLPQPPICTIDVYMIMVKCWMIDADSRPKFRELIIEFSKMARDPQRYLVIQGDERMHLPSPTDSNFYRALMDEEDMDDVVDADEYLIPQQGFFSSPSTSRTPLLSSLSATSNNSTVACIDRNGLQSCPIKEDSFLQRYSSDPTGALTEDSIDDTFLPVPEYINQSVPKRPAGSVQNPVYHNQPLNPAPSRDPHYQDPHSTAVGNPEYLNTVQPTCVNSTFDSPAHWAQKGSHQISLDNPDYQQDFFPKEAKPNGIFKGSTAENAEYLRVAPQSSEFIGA
Sequence of BaF3 (EGFR-A763insFQEA) (P00533 with tags, fused parts or gaps INS763FQEA): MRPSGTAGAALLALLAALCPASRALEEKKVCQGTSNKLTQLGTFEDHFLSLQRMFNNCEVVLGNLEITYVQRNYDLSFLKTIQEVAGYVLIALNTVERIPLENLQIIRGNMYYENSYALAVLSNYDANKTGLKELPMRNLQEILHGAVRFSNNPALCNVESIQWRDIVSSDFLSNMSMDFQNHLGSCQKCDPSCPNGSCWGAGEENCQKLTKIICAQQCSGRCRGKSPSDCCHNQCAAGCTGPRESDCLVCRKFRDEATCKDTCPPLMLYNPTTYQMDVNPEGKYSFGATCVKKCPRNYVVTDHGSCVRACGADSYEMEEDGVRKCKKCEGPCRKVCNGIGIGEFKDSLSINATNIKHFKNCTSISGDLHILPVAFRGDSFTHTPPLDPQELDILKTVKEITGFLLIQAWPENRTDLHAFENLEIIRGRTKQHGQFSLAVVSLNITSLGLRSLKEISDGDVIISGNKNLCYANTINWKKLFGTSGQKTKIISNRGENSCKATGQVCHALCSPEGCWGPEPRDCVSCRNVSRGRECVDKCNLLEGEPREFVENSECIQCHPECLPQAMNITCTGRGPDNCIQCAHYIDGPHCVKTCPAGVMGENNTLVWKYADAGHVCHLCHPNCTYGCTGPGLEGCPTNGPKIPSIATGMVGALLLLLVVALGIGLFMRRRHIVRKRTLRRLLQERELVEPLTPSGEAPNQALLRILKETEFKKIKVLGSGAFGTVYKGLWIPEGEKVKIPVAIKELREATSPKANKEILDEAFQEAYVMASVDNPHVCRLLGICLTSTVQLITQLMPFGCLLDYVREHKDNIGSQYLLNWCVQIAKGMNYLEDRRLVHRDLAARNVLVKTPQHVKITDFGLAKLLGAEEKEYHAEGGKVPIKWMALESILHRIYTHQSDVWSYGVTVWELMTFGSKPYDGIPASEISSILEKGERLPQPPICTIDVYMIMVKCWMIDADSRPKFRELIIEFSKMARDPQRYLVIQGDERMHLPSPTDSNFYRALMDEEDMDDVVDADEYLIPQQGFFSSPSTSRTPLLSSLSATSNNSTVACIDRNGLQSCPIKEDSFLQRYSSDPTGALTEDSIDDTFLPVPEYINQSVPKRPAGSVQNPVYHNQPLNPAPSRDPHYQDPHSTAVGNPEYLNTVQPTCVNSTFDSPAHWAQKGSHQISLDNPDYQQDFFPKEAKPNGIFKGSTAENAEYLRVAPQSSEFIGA
T1 sequence (P00533 25-1210 limits assumed, stated change not applied): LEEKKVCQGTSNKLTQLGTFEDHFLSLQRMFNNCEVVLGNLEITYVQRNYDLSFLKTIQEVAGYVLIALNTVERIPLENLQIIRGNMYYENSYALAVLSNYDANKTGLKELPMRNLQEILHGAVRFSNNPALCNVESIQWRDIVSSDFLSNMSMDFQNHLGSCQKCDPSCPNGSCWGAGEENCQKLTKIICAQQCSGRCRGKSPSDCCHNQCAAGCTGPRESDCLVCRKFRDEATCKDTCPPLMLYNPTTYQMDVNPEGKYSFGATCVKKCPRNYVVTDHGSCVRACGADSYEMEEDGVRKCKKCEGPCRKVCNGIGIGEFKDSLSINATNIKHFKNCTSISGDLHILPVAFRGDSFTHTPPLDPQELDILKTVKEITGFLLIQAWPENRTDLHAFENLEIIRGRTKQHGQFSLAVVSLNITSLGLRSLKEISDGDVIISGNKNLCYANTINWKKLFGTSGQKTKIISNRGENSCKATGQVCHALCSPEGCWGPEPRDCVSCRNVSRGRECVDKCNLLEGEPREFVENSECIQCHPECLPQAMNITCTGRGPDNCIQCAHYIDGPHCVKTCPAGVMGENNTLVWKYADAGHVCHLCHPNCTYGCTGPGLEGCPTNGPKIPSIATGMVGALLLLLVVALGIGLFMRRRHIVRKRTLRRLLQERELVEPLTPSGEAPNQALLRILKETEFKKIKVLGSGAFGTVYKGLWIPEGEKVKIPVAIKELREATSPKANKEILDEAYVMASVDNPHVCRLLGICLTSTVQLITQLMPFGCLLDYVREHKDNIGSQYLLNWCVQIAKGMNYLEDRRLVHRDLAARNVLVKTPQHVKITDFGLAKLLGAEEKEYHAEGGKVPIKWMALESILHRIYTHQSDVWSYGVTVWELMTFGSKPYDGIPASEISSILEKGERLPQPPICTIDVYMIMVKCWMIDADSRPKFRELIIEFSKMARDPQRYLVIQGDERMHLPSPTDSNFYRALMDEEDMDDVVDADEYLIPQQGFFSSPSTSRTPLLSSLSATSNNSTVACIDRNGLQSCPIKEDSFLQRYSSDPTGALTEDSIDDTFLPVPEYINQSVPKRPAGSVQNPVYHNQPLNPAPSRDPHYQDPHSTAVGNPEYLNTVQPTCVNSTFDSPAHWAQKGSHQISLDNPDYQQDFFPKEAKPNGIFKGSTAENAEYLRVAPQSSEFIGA
Sequence of BaF3 (EGFR-V769insASV) (P00533 with tags, fused parts or gaps DUP767-769): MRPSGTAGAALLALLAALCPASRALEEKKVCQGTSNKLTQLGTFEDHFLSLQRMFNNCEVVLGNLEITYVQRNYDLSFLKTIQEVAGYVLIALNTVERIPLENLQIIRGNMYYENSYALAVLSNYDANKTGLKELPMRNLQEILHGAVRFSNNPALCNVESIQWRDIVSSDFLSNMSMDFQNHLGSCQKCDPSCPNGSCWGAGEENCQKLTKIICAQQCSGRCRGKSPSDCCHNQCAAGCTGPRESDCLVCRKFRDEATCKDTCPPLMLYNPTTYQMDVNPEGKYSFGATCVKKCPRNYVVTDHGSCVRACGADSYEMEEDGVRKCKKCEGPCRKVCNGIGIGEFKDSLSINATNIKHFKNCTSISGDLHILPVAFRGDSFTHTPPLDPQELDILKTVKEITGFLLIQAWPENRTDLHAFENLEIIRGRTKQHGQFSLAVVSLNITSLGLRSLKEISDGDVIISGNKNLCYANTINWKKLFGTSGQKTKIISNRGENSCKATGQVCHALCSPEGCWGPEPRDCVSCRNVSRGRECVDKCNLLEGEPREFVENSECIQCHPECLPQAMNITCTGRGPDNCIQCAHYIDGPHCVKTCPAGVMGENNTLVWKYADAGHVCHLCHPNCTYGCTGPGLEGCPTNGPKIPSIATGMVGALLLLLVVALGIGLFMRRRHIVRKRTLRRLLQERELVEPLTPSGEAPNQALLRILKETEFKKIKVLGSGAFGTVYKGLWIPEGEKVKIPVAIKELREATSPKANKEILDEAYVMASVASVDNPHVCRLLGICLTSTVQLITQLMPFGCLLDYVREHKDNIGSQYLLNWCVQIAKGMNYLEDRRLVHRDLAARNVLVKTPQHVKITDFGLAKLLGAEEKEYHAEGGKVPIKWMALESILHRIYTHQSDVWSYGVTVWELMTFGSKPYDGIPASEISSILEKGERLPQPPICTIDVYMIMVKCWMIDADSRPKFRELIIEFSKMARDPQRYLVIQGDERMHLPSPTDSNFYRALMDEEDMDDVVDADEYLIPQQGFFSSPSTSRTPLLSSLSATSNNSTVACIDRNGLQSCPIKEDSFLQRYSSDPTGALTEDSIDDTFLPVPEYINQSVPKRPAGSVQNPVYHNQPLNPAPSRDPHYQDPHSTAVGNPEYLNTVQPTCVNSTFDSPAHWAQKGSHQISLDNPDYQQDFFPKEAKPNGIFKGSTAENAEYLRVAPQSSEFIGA

SMILES	GI50 (BaF3 (EGFR/D770insSVD) [2])	GI50 (BaF3 (EGFR/A763insFQEA))	GI50 (BaF3 (EGFR/V769insASV))	IC50 [3]	GI50 (BaF3 (EGFR-D770insSVD))	GI50 (BaF3 (EGFR-A763insFQEA))	GI50 (BaF3 (EGFR-V769insASV))	cell activity compared with Osimertinib (AZD9291) against EGFR exon 20 insertion mutations (BaF3 (EGFR/D770insSVD) [1])
C=CC(=O)Nc1cc(Nc2nccc(-c3cnc4c(C(F)(F)F)cccn34)n2)c(OC)cc1N(C)CCN(C)C [Example 6, N-(2-((2-(dimethylamino)ethyl)(methyl)amino)-4-methoxy-5-((4-(8-trifluoromethylimidazo[1,2-a]pyridin-3-yl)pyrimidin-2-yl)amino)phenyl)acrylamide]				91 nM	518 nM	277 nM	477 nM	significant superior cell activity over Osimertinib (AZD9291)
C=CC(=O)Nc1cc(Nc2nccc(-c3cnc4c(F)cccn34)n2)c(OC)cc1N(C)CCN(C)C [Example 5, N-(2-((2-(dimethylamino)ethyl)(methyl)amino)-5-((4-(8-fluoroimidazo[1,2-a]pyridin-3-yl)pyrimidin-2-yl)amino)-4-methoxyphenyl)acrylamide]				19.5 nM	144 nM	42.6 nM	148 nM	significant superior cell activity over Osimertinib (AZD9291)
C=CC(=O)Nc1cc(Nc2nccc(-c3cnc4c(I)cccn34)n2)c(OC)cc1N(C)CCN(C)C [Example 4, N-(2-((2-(dimethylamino)ethyl)(methyl)amino)-4-methoxy-5-((4-(8-iodoimidazo[1,2-a]pyridin-3-yl)pyrimidin-2-yl)amino)phenyl)acrylamide]				66.7 nM	592 nM	313 nM	470 nM	significant superior cell activity over Osimertinib (AZD9291)
C=CC(=O)Nc1cc(Nc2ncnc(N3CC(C)(C)c4ncccc43)n2)c(OC)cc1N(C)CCN(C)C [Compound 17, N-(5-((4-(3,3-dimethyl-2,3-dihydro-1H-pyrrolo[3,2-b]pyridin-1-yl)-1,3,5-triazin-2-yl)amino)-2-((2-(dimethylamino)ethyl)(methyl)amino)-4-methoxyphenyl)acrylamide]	58 nM	14.7 nM	36.4 nM					significant superior cell activity over Osimertinib (AZD9291)

The next lines start with results.

GI50 (BaF3 (EGFR/D770insSVD) [2])	GI50 (BaF3 (EGFR/A763insFQEA))	GI50 (BaF3 (EGFR/V769insASV))	IC50 [3]	GI50 (BaF3 (EGFR-D770insSVD))	GI50 (BaF3 (EGFR-A763insFQEA))	GI50 (BaF3 (EGFR-V769insASV))	SMILES	cell activity compared with Osimertinib (AZD9291) against EGFR exon 20 insertion mutations (BaF3 (EGFR/D770insSVD) [1])
320 nM	131 nM	244 nM					C=CC(=O)Nc1cc(Nc2ncnc(-n3cc(C)c4cnccc43)n2)c(OC)cc1N(C)CCN(C)C [Compound 18, N-(2-((2-(dimethylamino)ethyl)(methyl)amino)-4-methoxy-5-((4-(3-methyl-1H-pyrrolo[3,2-c]pyridin-1-yl)-1,3,5-triazin-2-yl)amino)phenyl)acrylamide]	significant superior cell activity over Osimertinib (AZD9291)
			19.8 nM	412 nM	280 nM	386 nM	C=CC(=O)Nc1cc(Nc2ncnc(-n3ccc4cnccc43)n2)c(OC)cc1N1CC[C@@H]1CN(C)C [Example 1, (R)—N-(5-((4-(1H-pyrrole[3,2-c]pyridin-1-yl)-1,3,5-triazin-2-yl)amino)-2-(2-((dimethylamino)methyl)azetidine-1-yl)-4-methoxyphenyl)acrylamide]	
